Where no end group is shown, it is not given here.
What was measured:
[1] = system: Normal Human Epithelial Keratinocyte (NHEK); experiment: in vitro response to injury: keratinocyte migration / relative wound closure; type: cell-based; details: for relative wound closure via NHEK migration: 0.5 nM of each peptide, compared to control (FIG. 4); for keratinocyte migration in response to injury in vitro: general statement, no concentration
Description: FIG. 4 is a graph illustrating a measure of relative wound closure via Normal Human Epithelial Keratinocyte (NHEK) migration after exposure to 0.5 nM of each of the peptides of SEQ ID NOs: 1, 2, and 3 (“UN1,” “UN2,” and “UN3” respectively).
(§1) Each of the three peptide sequences were then analyzed for activity via (1) in vitro angiogenesis assays where blood vessel formation in vitro was quantified; (2) in vitro response to injury analyses, including quantitative analysis, of migration in response to injury; and (3) in vitro quantitation of cell proliferation assays. The results of experiments performed are illustrated in FIGS. 1 to 4.
In addition, each of the three peptides of the invention were compared with regard to adult normal human epithelial keratinocyte migration.

[2] = system: Human Microvascular Endothelial Cells (HMVEC); experiment: in vitro angiogenesis assay: tubule formation from HMVEC in Matrigel; type: cell-based; details: for induction of angiogenesis in vitro: general statement, no concentration
Description: FIG. 1 is an illustration of a comparison 0.5 nM of the peptide of SEQ ID NO: 1 (“UN1”) to a serum control sample in the formation of tubules from Human Microvascular Endothelial Cells (HMVEC) in Matrigel™ after 3 hours.
FIG. 2 is a graph illustrating a measure of angiogenesis in terms of total process length in Human Microvascular Endothelial Cells (HMVEC) with 0.4 nM and 250 nM of the SEQ ID NO: 1 (“UN1”).
FIG. 3 is a graph illustrating a measure of angiogenesis in terms of total process length in Human Microvascular Endothelial Cells (HMVEC) with 0.4 nM and 250 nM of the peptide of SEQ ID NO: 3 (“UN3”).
as §1
The peptide (SEQ. ID NO: 1 (“UN1”)) was compared to each of VEGF 4 ng/ml and Serum Control in an in vitro angiogenesis analysis.
The peptide (SEQ ID NO: 3 (“UN3”)) was also compared to VEGF and Serum Control in in vitro angiogenesis analysis.

| Sequence | relative wound closure via NHEK migration [1] | keratinocyte migration in response to injury in vitro [1] | induction of angiogenesis in vitro [2] | process length ([2]; in comparison to VEGF, peptide at 250 nM (FIG. 3)) | process length ([2]; in comparison with Serum Control, 0.4 nM and 250 nM (FIG. 3)) | formation of tubules (number and lengths of processes or tubules), in vitro angiogenesis ([2]; 0.5 nM peptide, HMVEC in Matrigel, after 3 hours, versus serum control (FIG. 1)) | tubule formation ([2]; in comparison to Serum Control and VEGF 4 ng/ml (FIGS. 1 and 2)) | process length ([2]; in comparison to Serum Control and VEGF 4 ng/ml, 0.4 nM and 250 nM (FIG. 2)) |
| --- | --- | --- | --- | --- | --- | --- | --- | --- |
| TATSEYQTFFNPR [UN2] | significantly better | – | – | – | – | – | – | – |
| ELLESYIDRPTATSEYQTFFNPR [UN3] | significantly better | promote keratinocyte migrations | induce angiogenesis in vitro | significant increase in process length | significant increase in process length | – | – | – |
| ELLESYIDR [UN1] | significantly better | promote keratinocyte migrations | induce angiogenesis in vitro | – | – | significant induction of in vitro angiogenesis | induced significant tubule formation | significant tubule formation and process length |

Reference: patent US10106588B2, “Nucleic acids encoding peptides for treating wounds, anti-angiogenic compounds and uses thereof” (Trustees of Tufts College, priority 2008, dated 2018)
